Results reported in patent US20080260726A1, “Organic Compounds” (priority 2005, published 2008).

What was measured:
[1] = test system: mucus secretion in differentiated HBECs; assay: ATP-γS-induced mucin secretion in differentiated HBECs, enzyme-linked lectin assay (ELLA); assay type: cell-based, human
Protocol: The effect of siRNA knockdown of CTSC expression on mucin secretion in differentiated HBECs is examined using the CTSC SMARTPOOL at different concentrations (0.3-10 nM). Adenosine triphosphate is used as a mucin secretagogue and secreted mucin is measured using an enzyme-linked lectin assay (ELLA; Kemp, Sugar and Jackson Am. J. Respir. Cell Mol. Biol. (2004) 31: 446-455). HBECs (16.5×10^4 cells per insert from donor 2F1S78) are transfected and cultured using the 9 day differentiation model as described in Example 2. At day 9 (6 days ALI) HBEC inserts are exposed to 100 μM ATP-γS for 10 minutes and supernatants are removed for analysis by ELLA. ATP-γS-induced mucus secretion is inhibited at all CTSC siRNA SMARTPOOL concentrations, but is unaffected by either cyclophilin B siRNA or Lipofectamine alone.
The effect of Compound A on mucus secretion in the 9 day model is examined by adding the compound at various concentrations (0.1-10 μM) to the apical surface in minimal medium containing 0.1% dimethyl sulphoxide (DMSO) and incubating for 30 minutes at 37° C., followed by 10 minutes exposure to 100 μM ATP-γS.

[2] = test system: goblet cell formation in HBECs; assay: Goblet cell formation with Compound A in basolateral medium, 45M1 and AB/PAS staining; assay type: cell-based, human
Protocol: The siRNA duplexes are transfected into HBECs using […]. Transfection medium is prepared by mixing OPTI-MEM® I reduced serum medium (Invitrogen Corp.), siRNA duplex (5× final concentration) and Lipofectamine 2000™ (5× final concentration), incubating at room temperature for 30 minutes, then diluting 1:5 in antibiotic free differentiation medium (DIFF-AB medium; bronchial epithelial basal medium and Dulbeccos modified eagles medium [50:50] plus bronchial epithelial growth medium SingleQuots [bovine pituitary extract, insulin, hydrocortisone, all-trans retinoic acid, transferrin, epinephrine, tri-iodothyronine and human epidermal growth factor at the recommended concentrations, but no tri-iodothyronine and gentamycin/amphotericin B], all obtained from BioWhittaker) prior to addition to HBECs. For these experiments an abbreviated version of the HBEC model is used in which HBECs are maintained as submerged cultures for 3 days and then transferred to ALI for 6 days. Cells from a passage 2 (P2) stock of HBEC donor 2F1578 are cultured as described in Atherton et al. Am. J. Physiol. Lung Cell Mol. Physiol. (2003) 285: L730-L739 to approximately 85% confluence before harvesting for transfection. After trypsinisation and recovery by centrifugation, cells are resuspended at a density of 16.5×10^4 cells per ml in DIFF-AB medium containing siRNA duplex (10 nM) and Lipofectamine 2000™ (1 μl per ml) and seeded onto 12 well Transwell Clear inserts. One ml of HBEC/DIFF-AB medium/siRNA/lipofectamine 2000™ mix is deposited onto each insert and 1 ml of DIFF-AB medium is added to the basolateral chamber of each insert. After 24 hours (day 1 of submerged culture), all media is aspirated (apically and basolaterally) and replaced with 0.5 ml apically and 1 ml basolaterally of DIFF-AB medium containing 50 μg per ml gentamycin but no amphotericin B (DIFF-AB+G). On day 3, DIFF-AB+G medium is aspirated from the apical and basolateral surfaces and HBECs are cultured at ALI with DIFF-AB+G medium containing 1 ng per ml IL13. All cells are incubated at 37° C., 5% CO2 and 95% relative humidity. The basolateral medium is aspirated at days 5 and 7 and replaced with 1 ml DIFF-AB+G medium containing IL13. In addition the apical surface is rinsed with 0.5 ml phosphate buffered saline (PBS) to remove accumulated cell debris/mucus. Cells are harvested for total RNA extraction at days 3, 5, 7 and 9 as described above, and for goblet cell analysis by histology at day 9. For histology, inserts are fixed by the addition of 0.5 ml 10% neutral buffered formalin (NBF) to the apical surface followed by 1 ml NBF to the basolateral surface. After 24 hours of fixation the inserts are bisected and processed to RALwax through graded industrial methylated spirit (IMS) and chloroform. Both halves of the insert are embedded on edge using fresh RALwax. The paraffin blocks are sectioned at […] and stained with 45M1 antibody (an anti-MUCSAC antibody obtained from Lab-Vision Neomarkers) and alcian blue/haematoxylin and eosin (AB/H&E) according to standard histological protocols to enable detection of mucin and discrimination of individual cells by nuclear staining. The stained slides are examined microscopically.
[…] The effect on goblet cell formation is examined histologically by 45M1 and AB/PAS staining per unit length of epithelium.
A modest effect at 10 μM is seen, with no effect at 0.1 and 1 μM.

mucus secretion (in words) ([1]; Compound A 0.1-10 μM, 100 μM ATP-γS): dose-dependently inhibits
SMILES: CCCS(=O)(=O)Nc1ccc(Cc2cc3cnc(C#N)nc3n2CC(C)(C)C)cc1 [Compound A, propane-1-sulfonic acid {4-[2-cyano-7-(2,2-dimethyl-propyl)-7H-pyrrolo[2,3-d]pyrimidin-6-ylmethyl]-phenyl}-amide]
mucus secretion (Vehicle = 100.00) ([1]; Compd A (0.1 μM), 30 minutes, then 100 μM ATP-γS 10 minutes): 203.51
mucus secretion (Vehicle = 100.00) ([1]; Compd A (10 μM) only, no ATP, 30 minutes apical, 9 day model): 88.99
mucus secretion (Vehicle = 100.00) ([1]; Compd A (10 μM), first column so headed, 30 minutes, then 100 μM ATP-γS 10 minutes): 120.18
mucus secretion (Vehicle = 100.00) ([1]; Compd A (10 μM), second column so headed, 30 minutes, then 100 μM ATP-γS 10 minutes): 177.02
45M1 and AB/PAS staining per unit length of epithelium ([2]; Table 6, 9 day model (6 days ALI), 0.1 uM + IL13): no effect
45M1 and AB/PAS staining per unit length of epithelium ([2]; Table 6, 9 day model (6 days ALI), 0.1 uM + IL13, listed as Compd A): 2.533
45M1 and AB/PAS staining per unit length of epithelium ([2]; Table 6, 9 day model (6 days ALI), 1 uM + IL13): no effect
45M1 and AB/PAS staining per unit length of epithelium ([2]; Table 6, 9 day model (6 days ALI), 1 uM + IL13, listed as Compd A): 2.621
45M1 and AB/PAS staining per unit length of epithelium ([2]; Table 6, 9 day model (6 days ALI), 10 uM + IL13): modest effect
45M1 and AB/PAS staining per unit length of epithelium ([2]; Table 6, 9 day model (6 days ALI), 10 uM + IL13, listed as Compd A): 1.424
45M1 and AB/PAS staining per unit length of epithelium ([2]; Table 6, 9 day model (6 days ALI), 10 uM, no IL13): 0.300
45M1 and AB/PAS staining per unit length of epithelium ([2]; Table 7, 11 days at ALI, 0.1 uM + IL-13 1 ng/ml): 3.609
45M1 and AB/PAS staining per unit length of epithelium ([2]; Table 7, 11 days at ALI, 1 uM + IL-13 1 ng/ml): 3.700
45M1 and AB/PAS staining per unit length of epithelium ([2]; Table 7, 11 days at ALI, 10 uM + IL-13 1 ng/ml): greater inhibition
45M1 and AB/PAS staining per unit length of epithelium ([2]; Table 7, 11 days at ALI, 10 uM + IL-13 1 ng/ml, listed as Compd A): 0.886
45M1 and AB/PAS staining per unit length of epithelium ([2]; Table 7, 11 days at ALI, 10 uM, no IL-13): 0.153
